Results reported in US20170035742A1, “DURABLE TREATMENT WITH 4-AMINOPYRIDINE IN PATIENTS WITH DEMYELINATION” (Acorda Therapeutics, Inc., priority 2009, published 2017).

Columns and labels:
[1] = test system: patients with multiple sclerosis; assay: MS-F203EXT open-label extension study; settings: over two years open-label
Experimental: This extension study (MS-F203EXT) monitored efficacy and safety during open-label treatment of patients from MS-F203. Design/methods: Patients were treated with 10 mg fampridine bid, and were assessed in the clinic at 2, 14, and 26 weeks and every 6 months thereafter. Eligibility criteria included: definite MS; age 18-70; Timed 25-Foot Walk (T25FW) times of 8-45 seconds at screening for MS-F203. Efficacy was analyzed by the proportion of Extension Timed Walk Responders (ETWRs) whose walking was faster during the majority of visits than their fastest off-treatment speed.
MS-F203EXT monitored efficacy and safety during open-label treatment of patients from MS-F203. Patients were treated with 10 mg fampridine bid, and were assessed in the clinic at 2, 14, and 26 weeks and every 6 months thereafter. Eligibility criteria included: definite MS; age 18-70; Timed 25-Foot Walk (T25FW) times of 8-45 seconds at screening for MS-F203. Efficacy was analyzed by the proportion of Extension Timed Walk Responders (ETWRs) whose walking was faster during the majority of visits than their fastest off-treatment speed. […] There are safety assessments, a timed 25 Foot Walk assessment, Clinician and Subject Global Impression at each visit. An EDSS assessment is performed every 2 years.
Timed walk response in the extension study was measured using the Timed 25-Foot Walk (T25W). […]

[2] = Single- and repeated-dose toxicity studies; assay type: in vivo; settings: after large single doses or repeated lower doses, all species studied
Excerpt: In single- and repeated-dose toxicity studies, the dosing regimen greatly affected the rate of side effects. […] These clinical signs were not unexpected and represent exaggerated pharmacology of 4-aminopyridine.

[3] = Rat i.v. and p.o. pharmacokinetics, 2 mg/kg (M 2001-03); settings: AUC(0-∞) p.o. vs i.v.
[4] = Plasma protein binding; assay type: in vitro ADME; settings: human
Excerpt: Measurable levels are present in the saliva.

[5] = Adverse events in controlled clinical studies; assay type: in vivo, human
Excerpt: In controlled clinical studies involving the use of 4-aminopyridine, the most frequent adverse events by body system occurred in the nervous system, “body as a whole”, and digestive system.
While an increased incidence of such events appears to be moderately dose-related, the susceptibility of individuals is quite variable. As a result of disease pathology, there appears to be potential for more lowering of seizure threshold in people with MS than for people with spinal cord injury; this may result from interaction of the channel-blocking properties of the drug with MS brain pathology in certain individuals.

[6] = Tissue distribution of 14C-labeled 4-aminopyridine 1 mg/kg p.o. in rats; settings: one hour post-dose
Experimental: In a single-dose study, rats were administered ^14C-labeled 4-aminopyridine (1 mg/kg) p.o. Three animals per time point were sacrificed 1, 3, 8, and 24 hours post-dose. Blood was collected and tissues were excised for determination of radioactivity.

Molecule	safety profile [1]	clinical signs [2]	bioavailability ([3]; female rats)	bioavailability ([3]; male rats)	unbound to plasma proteins [4]	most common nervous system adverse events [5]	most frequently reported event in the digestive system category [5]	dose accounted for in total [6]	radioactivity in blood, percent of dose [6]	radioactivity in kidney, percent of dose [6]	radioactivity in liver, percent of dose [6]
Nc1ccncc1 [4-aminopyridine]	No new safety issues emerged	tremors, convulsions, ataxia, dyspnea, dilated pupils, prostration, abnormal vocalization, increased respiration, excess salivation, gait abnormalities, and hyper- and hypo-excitability	~55%	approximately 66.5%	97-99%	Dizziness, insomnia, paresthesia, pain, headache and asthenia	nausea	–	–	–	–
^14C-4-Aminopyridine	–	–	–	–	–	–	–	58.3%	0.7%	1.6%	2.6%
